From PubChem BioAssay (NCI)
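Cells were grown in 96-well plates and exposed to each compound for 48 hours at five concentrations; endpoints were interpolated linearly between bracketing concentrations, or set to the highest concentration if not reached. TGI marks complete inhibition of growth.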

What was measured:
Experiment in all cases: NCI tumour cell line growth inhibition, 48 h
[1] = test system: OVCAR-8 ovarian
[2] = test system: HS 578T breast
[3] = test system: CAKI-1 renal
[4] = test system: K-562 leukemia
[5] = test system: NCI-H23 lung
[6] = test system: MCF7 breast
[7] = test system: MDA-MB-435
[8] = test system: SR leukemia
[9] = test system: HCT-116 colon
[10] = test system: LOX IMVI melanoma
[11] = test system: SK-MEL-5 melanoma
[12] = test system: MOLT-4 leukemia
[13] = test system: KM12 colon
[14] = test system: RPMI-8226 leukemia
[15] = test system: NCI-H522 lung
[16] = test system: SNB-75 CNS
[17] = test system: NCI-H226 lung
[18] = test system: 786-0 renal
[19] = test system: SNB-19 CNS
[20] = test system: HOP-92 NSCLC
[21] = test system: A549 NSCLC
[22] = test system: T-47D breast
[23] = test system: OVCAR-4 ovarian
[24] = test system: NCI-H460 lung
[25] = test system: BT-549 breast
[26] = test system: UO-31 renal
[27] = test system: SF-268 CNS
[28] = test system: COLO 205 colon
[29] = test system: HCT-15 colon
[30] = test system: M14 melanoma
[31] = test system: PC-3 prostate
[32] = test system: UACC-62 melanoma
[33] = test system: DU-145 prostate
[34] = test system: MALME-3M melanoma
[35] = test system: MDA-N
[36] = test system: HOP-62 NSCLC
[37] = test system: HL-60(TB) leukemia
[38] = test system: SN12C renal
[39] = test system: CCRF-CEM leukemia
[40] = test system: IGROV1 ovarian
[41] = test system: HT29 colon
[42] = test system: SK-MEL-2 melanoma
[43] = test system: OVCAR-3 ovarian
[44] = test system: SF-295 CNS
[45] = test system: SW-620 colon
[46] = test system: NCI/ADR-RES ovarian
[47] = test system: SK-OV-3 ovarian
[48] = test system: ACHN renal
[49] = test system: UACC-257 melanoma
[50] = test system: EKVX NSCLC
[51] = test system: OVCAR-5 ovarian
[52] = test system: TK-10 renal
[53] = test system: U251 CNS
[54] = test system: SK-MEL-28 melanoma
[55] = test system: A498 renal
[56] = test system: MDA-MB-231 breast
[57] = test system: RXF 393 renal
[58] = test system: SF-539 CNS
[59] = test system: HCC-2998 colon

Work on `CCOP(=O)(OCC)C(Cc1ccccc1)N=C(c1ccccc1)c1ccccc1` (centres undefined) yielded a TGI [1] of 33.8 µM, a TGI [2] of 26.6 µM and a TGI [3] of 31.6 µM. For the same molecule, the TGI [4] was 41.9 µM, the TGI [5] was 28.6 µM and the TGI [6] was 31.2 µM. The TGI [7] was 27.8 µM, the TGI [8] was over 100 µM and the TGI [9] was 30.8 µM. The TGI [10] was 24.7 µM, the TGI [11] was 25.5 µM and the TGI [12] was 25.8 µM. For the same molecule, the TGI [13] was 32.2 µM, the TGI [14] was over 100 µM and the TGI [15] was 29.6 µM. It also gave a TGI [16] of 24.2 µM, a TGI [17] of 32.9 µM and a TGI [18] of 30.2 µM. For the same molecule, the TGI [19] was 32.3 µM, the TGI [20] was 27.5 µM and the TGI [21] was 24.2 µM. The TGI [22] was 26.6 µM, the TGI [23] was 38.3 µM and the TGI [24] was 31.9 µM. For the same molecule, the TGI [25] was 27 µM, the TGI [26] was 24.4 µM and the TGI [27] was 37.6 µM. For the same molecule, the TGI [28] was 28.7 µM, the TGI [29] was 25 µM and the TGI [30] was 30.4 µM. The TGI [31] was 16.8 µM, the TGI [32] was 26.1 µM and the TGI [33] was 36.3 µM. It also gave a TGI [34] of 40.9 µM, a TGI [35] of 29.1 µM and a TGI [36] of 35.2 µM. The TGI [37] was over 100 µM, the TGI [38] was 35.2 µM and the TGI [39] was 37.1 µM. It also gave a TGI [40] of 26.8 µM, a TGI [41] of 27.6 µM and a TGI [42] of 38.2 µM. For the same molecule, the TGI [43] was 30.3 µM, the TGI [44] was 25.8 µM and the TGI [45] was 25.2 µM. For the same molecule, the TGI [46] was 28.7 µM, the TGI [47] was 28.5 µM and the TGI [48] was 28.6 µM. For the same molecule, the TGI [49] was 27.1 µM, the TGI [50] was 34.3 µM and the TGI [51] was 28.1 µM. It also gave a TGI [52] of 23.6 µM, a TGI [53] of 28.4 µM and a TGI [54] of 31.3 µM.
`Cc1cc2c(cc1Cl)Sc1nnc(C)n1S2(=O)=O` gave a TGI [1] of 48.8 µM, a TGI [2] of 79.7 µM and a TGI [3] of 29.9 µM. It also gave a TGI [4] of 35.4 µM, a TGI [5] of 30.1 µM and a TGI [6] of 18.1 µM. The TGI [7] was 26.6 µM, the TGI [9] was 45.4 µM and the TGI [10] was 23.6 µM. For the same molecule, the TGI [11] was 27 µM, the TGI [12] was 34.7 µM and the TGI [13] was 30.9 µM. The TGI [15] was 23.4 µM, the TGI [55] was 40.2 µM and the TGI [16] was 47.5 µM. For the same molecule, the TGI [17] was over 100 µM, the TGI [18] was 44.5 µM and the TGI [56] was 31.4 µM. The TGI [19] was 86.5 µM, the TGI [20] was 24.1 µM and the TGI [21] was 97.2 µM. For the same molecule, the TGI [22] was 28.3 µM, the TGI [23] was 27.2 µM and the TGI [24] was 78.5 µM. For the same molecule, the TGI [25] was 29.7 µM, the TGI [26] was 24.1 µM and the TGI [27] was 42.4 µM. For the same molecule, the TGI [28] was 30.7 µM, the TGI [29] was 25.5 µM and the TGI [57] was 47.4 µM. The TGI [30] was 30.8 µM, the TGI [31] was 37 µM and the TGI [32] was 30.6 µM. For the same molecule, the TGI [33] was 65 µM, the TGI [34] was 22.8 µM and the TGI [35] was 29.7 µM. It also gave a TGI [36] of 57.9 µM, a TGI [37] of 24.4 µM and a TGI [38] of 34.3 µM. It also gave a TGI [39] of 34.1 µM, a TGI [40] of 29.1 µM and a TGI [41] of 45.8 µM. The TGI [43] was 29.6 µM, the TGI [44] was 33.8 µM and the TGI [45] was 35 µM. For the same molecule, the TGI [46] was 69.8 µM, the TGI [47] was 75.2 µM and the TGI [58] was 36.4 µM. It also gave a TGI [48] of 27.7 µM, a TGI [49] of 30.5 µM and a TGI [50] of 34.3 µM. It also gave a TGI [59] of 33.9 µM, a TGI [51] of 97.7 µM and a TGI [52] of 56.9 µM. It also gave a TGI [53] of 42.8 µM and a TGI [54] of 31.5 µM.
For `O=C1NC(N/N=C/C(O)C(O)C(O)C(O)CO)=N/C1=C\c1cccs1` (centres undefined), the TGI [1] was over 100 µM, the TGI [2] was over 100 µM and the TGI [3] was over 100 µM. For the same molecule, the TGI [4] was over 100 µM, the TGI [5] was over 100 µM and the TGI [6] was over 100 µM. For the same molecule, the TGI [7] was over 100 µM, the TGI [9] was over 100 µM and the TGI [10] was over 100 µM. For the same molecule, the TGI [11] was over 100 µM, the TGI [12] was over 100 µM and the TGI [13] was over 100 µM. For the same molecule, the TGI [14] was over 100 µM, the TGI [15] was over 100 µM and the TGI [55] was over 100 µM. For the same molecule, the TGI [16] was over 100 µM, the TGI [17] was over 100 µM and the TGI [18] was over 100 µM. The TGI [56] was over 100 µM, the TGI [19] was over 100 µM and the TGI [20] was over 100 µM. For the same molecule, the TGI [21] was over 100 µM, the TGI [22] was over 100 µM and the TGI [23] was over 100 µM. For the same molecule, the TGI [24] was over 100 µM, the TGI [25] was over 100 µM and the TGI [27] was over 100 µM. For the same molecule, the TGI [28] was over 100 µM, the TGI [29] was over 100 µM and the TGI [57] was over 100 µM. It also gave a TGI [30] of over 100 µM, a TGI [31] of over 100 µM and a TGI [32] of over 100 µM. The TGI [33] was over 100 µM, the TGI [34] was over 100 µM and the TGI [35] was over 100 µM. The TGI [36] was over 100 µM, the TGI [37] was over 100 µM and the TGI [38] was over 100 µM. It also gave a TGI [39] of over 100 µM, a TGI [40] of over 100 µM and a TGI [41] of over 100 µM. For the same molecule, the TGI [42] was over 100 µM, the TGI [43] was over 100 µM and the TGI [44] was over 100 µM. It also gave a TGI [45] of over 100 µM, a TGI [46] of over 100 µM and a TGI [47] of over 100 µM. For the same molecule, the TGI [58] was over 100 µM, the TGI [48] was over 100 µM and the TGI [49] was over 100 µM. For the same molecule, the TGI [50] was over 100 µM, the TGI [59] was over 100 µM and the TGI [51] was over 100 µM. The TGI [52] was over 100 µM, the TGI [53] was over 100 µM and the TGI [54] was over 100 µM.
Molecule `COc1ncc(C#CC(=O)c2ccccc2OC)c(OC)n1` has a TGI [1] of 5.05 µM, a TGI [2] of over 32.4 µM and a TGI [3] of 4.17 µM. For the same molecule, the TGI [4] was over 42.9 µM, the TGI [5] was 7.56 µM and the TGI [6] was 2.91 µM. For the same molecule, the TGI [7] was 8.44 µM, the TGI [9] was 9.72 µM and the TGI [10] was 0.794 µM. The TGI [11] was 5.85 µM, the TGI [12] was 1.61 µM and the TGI [13] was 18.4 µM. The TGI [14] was 9.65 µM, the TGI [15] was 2.21 µM and the TGI [55] was 35.2 µM. For the same molecule, the TGI [16] was 10.2 µM, the TGI [17] was 3.35 µM and the TGI [18] was 3.69 µM. It also gave a TGI [56] of 2.75 µM, a TGI [19] of 29.3 µM and a TGI [20] of 4.47 µM. The TGI [21] was 19 µM, the TGI [22] was 22.9 µM and the TGI [23] was 20.7 µM. For the same molecule, the TGI [24] was 15.7 µM, the TGI [25] was 5.21 µM and the TGI [26] was 2.97 µM. For the same molecule, the TGI [27] was 12.2 µM, the TGI [28] was 4.12 µM and the TGI [29] was 2.08 µM. The TGI [57] was 3.32 µM, the TGI [30] was 5.05 µM and the TGI [31] was 4.3 µM. It also gave a TGI [32] of 7.49 µM, a TGI [33] of 12.3 µM and a TGI [34] of 3.36 µM. The TGI [35] was 3.41 µM, the TGI [36] was 40.5 µM and the TGI [37] was 4.63 µM. It also gave a TGI [38] of 1.91 µM, a TGI [39] of 1.58 µM and a TGI [40] of 3.98 µM. It also gave a TGI [41] of 3.84 µM, a TGI [42] of 6.4 µM and a TGI [43] of 8.27 µM. The TGI [44] was 39.7 µM, the TGI [45] was 2.73 µM and the TGI [46] was 4.78 µM. The TGI [47] was over 60.4 µM, the TGI [48] was 3.27 µM and the TGI [49] was 8.79 µM. It also gave a TGI [50] of 10.3 µM, a TGI [59] of 13 µM and a TGI [51] of 8.23 µM. The TGI [52] was 2.62 µM, the TGI [53] was 8.33 µM and the TGI [54] was 8.06 µM.
